Experimental data taken from patent US11529318B2, “Devices and methods for local delivery of tacrolimus” (UNIVERSITY OF PITTSBURGH—OF THE COMMONWEALTH SYSTEM OF …, priority 2017, dated 2022).

Experiments:
[1] = RGC viability analysis (calcein/propidium iodide live/dead kit); format: cell-based, rat; settings: both sexes, Sprague-Dawley, rat, primary retinal ganglion cells (RGCs), 3 days in vitro
Experimental: (§1) Retinal ganglion cell isolation. RGCs were isolated from female and male postnatal day three (P3) Sprague-Dawley rat pups, purified by immunopanning, and cultured in NB-SATO media as previously described (Barres, Silverstein et al. 1988). The RGCs were seeded (5×10^3/cm^2) on cell culture plates coated with poly-D-lysine (70 kDa, 10 μg/mL; Sigma-Aldrich Corp., St. Louis, Mo., USA) and laminin (2 μg/mL, Sigma-Aldrich Corp.), and maintained at 37° C. in 10% CO2 for 3 days.
(§2) RGC viability analysis. To analyze RGC viability a calcein and propidium iodide based live/dead kit was used after 3 DIV per the manufacturer's instructions (Life Technologies, R37601). Briefly, RGC cultures were incubated in the live/dead reagent for 15 minutes at room temperature and five random fields per well were imaged at 20× using standard epi-fluorescence fluorescein and rhodamine filter sets (Zeiss, Axio Observer). Live and dead cells were analyzed using ImageJ (National Institutes of Health, Bethesda, Md., USA). All graphical data represents three independent experimental repeats.

[2] = system: retinal ganglion cells (RGCs); experiment: as above; format: cell-based, rat; settings: for IC50: primary P3 rat RGCs, 3 days in vitro, 0.1 to 100 μM
Experimental: as §1, §2

[3] = reference range; cited from earlier work
[4] = system: retinal ganglion cells (RGCs); experiment: RGC neurite growth and branching analysis; format: cell-based, rat
Experimental: as §1
RGC neurite growth analysis. Neurite growth was analyzed as previously described (Steketee, Oboudiyat et al. 2014). Briefly, RGCs were fixed after 3 DIV with 4% paraformaldehyde (Alfa Aesar; 30525-89-4) in PBS, washed with PBS (2×), and permeabilized with 0.2% triton X-100 in PBS for 15 minutes. After blocking for 1 hour (1% BSA, Fisher Scientific), the RGCs were incubated in anti-β III tubulin (1:300, TUJ-1, Millipore) at 4° C. overnight, washed in PBS (3×), incubated with a FITC-rabbit anti-chicken IgY H+L (1:150, #31501, Thermo Scientific) for 3 hours, washed with PBS (3×), counterstained with the nuclear marker DAPI (1:3000, Invitrogen) for 20 minutes at room temperature, and washed in PBS (2×, 5 min. each). The RGCs were observed as above using epifluorescent microscopy and analyzed using the ImageJ plugin, NeuronJ (National Institutes of Health, Bethesda, Md., USA). Neurites were defined as any projection longer than twice the cell body, and branches were quantified as the number of secondary neurites extending from a primary neurite that originated at the cell body. At least 30 neurons were analyzed blindly as previously described for three independent experimental repeats, totaling at least 90 neurons per condition.

in vivo = experiment: in vivo; parameters: species or system Sprague-Dawley rats; settings: Sprague-Dawley, rat, 2.2 mg/kg/day, tacrolimus concentration
Experimental: Optic nerve ischemia and PEUU-Tac matrix application. Animals were anesthetized by intraperitoneal injection of 45:10 mg/kg ketamine/xylazine cocktail. Once anaesthetized, the optic nerve was exposed by making a small incision and then creating a nearly bloodless plane through the conjunctiva by blunt dissection with #5 forceps. The surrounding muscle and connective tissue around the optic nerve were then gently separated until the optic nerve was exposed. Using a Yasagril aneurysm clip, the right optic nerve was clamped ˜2 mm behind the globe for 10 seconds (Sarikcioglu, Demir et al. 2007). After removing the clip, ophthalmic artery integrity was confirmed by visualization. For some animals, the optic nerve sheath was fenestrated at the injury site by making an 1-2 mm incision. For animals receiving PEUU-Tac, a 1×5 mm section cut from a 10 mg PEUU-Tac matrix was sutured around the injury site and then secured by suturing to the outer sheath. After each optic nerve procedure, the conjunctiva was sutured and antibiotic ointment (Gentamicin, Bausch & Lomb, Tampa, Fla.) was applied to the eye. In total, twenty-eight animals received acute optic nerve ischemia to the right optic nerve with or without a PEUU-Tac wrap. The experimental groups were as follows: • (1) Five animals received a 1 mm×5 mm section of a 10 mg PEUU-Tac sheet sutured around the nerve. • (2) Five animals received a 1 mm×5 mm section of a 10 mg PEUU-Tac matrix implanted subcutaneously in the lower right quadrant of the abdomen. • (3) Five animals received daily intraperitoneal injections of tacrolimus (2.2 mg/kg/day) for 14 days with the first injection administered immediately after ischemic injury. • (4) Five animals were used as a sham control.
Blood and tissue collection. Twenty-four hours after injury, blood samples were drawn from all four groups via the tail vein. Four of the eight animals treated with PEUU-Tac were sacrificed at 24 hours and sixteen animals were sacrificed at 14 days. Blood, both retinas and both optic nerves were collected from all animals.
Tacrolimus tissue extraction and reconstitution in blood. Tissue (retina and optic nerve) samples were weighted and homogenized with organic solvent (methanol, 100%) using Mini-BeadBeater-1 sonicator for cell disruption and left over night to assure complete tacrolimus extraction. The homogenate was centrifuged at 2100±100 rpm for 10 min. The methanol was transferred to a microcentrifuge tube and evaporated using a sample concentrator. The drug residue was reconstituted with 1 mL of blood. Tacrolimus in the blood was analyzed as described below and tissue drug concentration was expressed in ng/g of tissue weight.
Quantification of tacrolimus in blood by HPLC-tandem mass spectrometry. […]

For `C=CC[C@@H]1/C=C(\C)C[C@H](C)C[C@H](OC)[C@H]2O[C@@](O)(C(=O)C(=O)N3CCCC[C@H]3C(=O)O[C@H](/C(C)=C/[C@@H]3CC[C@@H](O)[C@H](OC)C3)[C@H](C)[C@@H](O)CC1=O)[C@H](C)C[C@@H]2OC` [tacrolimus], which viability at 3 days, 0.5 μM ([1]; 0.5 μM tacrolimus) is on record?
The viability at 3 days, 0.5 μM was 87.4%.

And the viability at 3 days, 50 μM ([1]; 50 μM tacrolimus)?
The viability at 3 days, 50 μM was 0%.

And the “increase in RGC viability versus EtOH vehicle (70%)” value ([2]; 0.5 μM tacrolimus)?
Its value is 17.4%.

What about the IC50 ([2]; Rattus norvegicus, 72 h) of the same compound?
The IC50 was 24.2 µM.

And the “effect of dosage on neuron survival (live/dead study)” value ([2]; discussion statement)?
The value was “no significant effect”.

What about the IC50 [2] of the same compound?
Its IC50 is 25 µM.

And the “typical therapeutic trough levels (blood)” value [3]?
Its value is 10 to 20 ng/g.

What about the “share of the increase in total neurite growth manifested in axon growth” value [4] of the same compound?
Its value is 90%.

And the “neurite growth compared to all other conditions, including media control” value ([4]; 50 μM and 100 μM tacrolimus)?
The value was “significantly decreased”.

What about the “longest neurite (axon) growth” value ([4]; 3 DIV) of the same compound?
The value was “increased”.

What about the neurite branching ([4]; 3 DIV) of the same compound?
Its neurite branching is “without a change”.

And the “concentration at which total neurite growth was optimal” value ([4]; 3 DIV, axons and dendrites)?
Its value is 5 µM.

What about the axonal outgrowth ([4]; assays with RGCs and microglia) of the same compound?
The axonal outgrowth was “did not show an increase”.

And the “total and longest neurite growth” value ([4]; assays with RGCs only)?
The value was “significantly increased”.

What about the concentration at 14 days (in vivo; left optic nerve) of the same compound?
The concentration at 14 days was 1700 ng/g.

And the concentration at 14 days (in vivo; left retina)?
The concentration at 14 days was 618 ng/g.

And the concentration at 14 days (in vivo; right optic nerve)?
The concentration at 14 days was 2200 ng/g.

What about the concentration at 14 days (in vivo; right retina) of the same compound?
The concentration at 14 days was 530 ng/g.
